Source: ChEMBL document CHEMBL1938343, “Lead optimisation of selective non-zinc binding inhibitors of MMP13. Part 2” (Bioorg Med Chem Lett, 2012)

Experiments:
[1] = target: Matrix metalloproteinase-9 (Homo sapiens, UniProt P14780); assay: Inhibition of MMP9 using Mca-Pro-cyclohexyl-Ala-Gly-Nva-His-Ala- Dap(Dnp)-NH2 as substrate by fluorometric analysis
[2] = target: Matrix metalloproteinase-14 (Homo sapiens, UniProt P50281); assay: Inhibition of MMP14 using Mca-Pro-cyclohexyl-Ala-Gly-Nva-His-Ala- Dap(Dnp)-NH2 as substrate by fluorometric analysis
[3] = Apparent permeability across apical to basolateral side in human Caco2 cells at 10 uM; assay type: ADME, cell-based; conditions: Caco-2
[4] = target: T1, A disintegrin and metalloproteinase with thrombospondin motifs 1 (Homo sapiens) (UniProt Q9UHI8); assay: Inhibition of ADAM-TS1 dimethoxyfluorescein-Ser-Pro-Leu-Ala-Gln-Ala- Val-Arg-ser-Ser-Arg-Cys-fluorescein
T1 sequence (whole entry): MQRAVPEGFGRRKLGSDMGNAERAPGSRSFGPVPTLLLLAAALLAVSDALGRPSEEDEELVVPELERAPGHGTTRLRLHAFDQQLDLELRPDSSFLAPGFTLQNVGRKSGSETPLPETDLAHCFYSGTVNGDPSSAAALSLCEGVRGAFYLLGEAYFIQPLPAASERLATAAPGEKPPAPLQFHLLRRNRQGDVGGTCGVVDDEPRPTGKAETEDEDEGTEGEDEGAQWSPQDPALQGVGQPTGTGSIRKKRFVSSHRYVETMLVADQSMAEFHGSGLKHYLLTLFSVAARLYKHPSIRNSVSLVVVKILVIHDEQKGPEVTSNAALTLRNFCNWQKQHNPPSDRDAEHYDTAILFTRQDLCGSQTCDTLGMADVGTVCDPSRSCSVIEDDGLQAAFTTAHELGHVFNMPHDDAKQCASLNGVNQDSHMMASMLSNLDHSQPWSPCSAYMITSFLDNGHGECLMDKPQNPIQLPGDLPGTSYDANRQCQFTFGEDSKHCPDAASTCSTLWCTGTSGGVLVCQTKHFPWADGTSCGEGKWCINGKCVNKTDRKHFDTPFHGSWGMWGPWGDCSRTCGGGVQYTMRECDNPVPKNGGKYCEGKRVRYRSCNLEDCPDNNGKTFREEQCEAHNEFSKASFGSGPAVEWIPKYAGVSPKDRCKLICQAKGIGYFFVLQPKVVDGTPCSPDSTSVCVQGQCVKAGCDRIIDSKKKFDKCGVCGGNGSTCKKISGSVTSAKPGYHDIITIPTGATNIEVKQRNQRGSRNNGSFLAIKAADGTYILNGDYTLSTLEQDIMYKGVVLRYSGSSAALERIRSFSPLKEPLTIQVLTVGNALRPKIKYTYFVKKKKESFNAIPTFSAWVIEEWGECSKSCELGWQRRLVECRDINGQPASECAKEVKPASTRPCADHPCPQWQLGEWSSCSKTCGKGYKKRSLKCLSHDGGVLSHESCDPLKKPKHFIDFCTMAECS

Chain of Matrix metalloproteinase-9 (P14780 whole entry): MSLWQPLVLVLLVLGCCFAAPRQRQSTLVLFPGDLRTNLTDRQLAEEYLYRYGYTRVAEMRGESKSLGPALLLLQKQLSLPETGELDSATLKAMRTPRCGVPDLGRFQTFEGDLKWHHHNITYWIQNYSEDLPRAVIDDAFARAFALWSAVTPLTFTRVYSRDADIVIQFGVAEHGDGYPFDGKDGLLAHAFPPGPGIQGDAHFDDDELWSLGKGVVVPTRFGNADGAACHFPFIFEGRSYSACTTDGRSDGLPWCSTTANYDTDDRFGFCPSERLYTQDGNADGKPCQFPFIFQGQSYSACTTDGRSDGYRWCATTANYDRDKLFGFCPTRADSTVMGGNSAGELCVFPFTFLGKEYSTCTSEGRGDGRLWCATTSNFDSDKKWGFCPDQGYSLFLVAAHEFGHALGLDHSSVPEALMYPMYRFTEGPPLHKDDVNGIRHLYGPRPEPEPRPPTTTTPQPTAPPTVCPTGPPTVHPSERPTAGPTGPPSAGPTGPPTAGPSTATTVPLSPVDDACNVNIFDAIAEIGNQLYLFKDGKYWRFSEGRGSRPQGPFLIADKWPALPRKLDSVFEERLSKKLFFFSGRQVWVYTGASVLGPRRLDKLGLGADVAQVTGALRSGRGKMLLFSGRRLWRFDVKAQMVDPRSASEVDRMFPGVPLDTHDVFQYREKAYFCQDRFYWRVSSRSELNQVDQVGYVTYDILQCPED

Work on `CN1CCC(NC(=O)c2ccc(Oc3ccc(C#C[C@]4(O)CN5CCC4CC5)cc3)cc2)CC1` yielded a pIC50 [1] of under 5, an IC50 ([1]; read-out: IC50) of over 10 µM and a pIC50 [2] of under 5. It also gave an IC50 ([2]; read-out: IC50) of over 10 µM, a Papp A→B at 10 µM [3] of 0.3 ×10⁻⁶ cm/s and an INH [4] of over 100 µM.
